From patent publication US8895585B2, “Nicotinamide derivative or salt thereof” (FUJIFILM Corporation, priority 2010, dated 2014)

Tests used:
[1] = target: T1, glutathione S-transferase (GST)-fused full-length human Syk protein (Homo sapiens, UniProt P43405); test: Syk enzyme assay; type: biochemical; conditions: Syk enzyme assay, Test Example 1; read-out: IC50 of Syk-inhibitory activity
T1 construct: (GST)-fused full-length human Syk protein; GST (glutathione S-transferase); purchased Carna Biosciences
Summary of the method: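 IC50 values come from a time-resolved FRET readout (615 and 665 nm) of substrate phosphorylation, measured after an EDTA stop and 1 h antibody binding. The kinase reaction ran 40 min at room temperature with 27 μM ATP and 0.4 μM biotin-peptide, following a 15 min compound preincubation with baculovirus-made GST-full-length human Syk.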

[2] = test system: THP-1 cells; test: TNFα generation assay; type: cell-based, human; conditions: Homo sapiens, THP-1, THP-1 cells; Table 22; read-out: IC50 in TNFα generation assay
Summary of the method: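 Secreted TNFα in supernatant quantified by ELISA or AlphaLISA after 7 h culture on human IgG-coated wells (10 μg/ml coating). Cells were IFN-γ-differentiated THP-1 (10 ng/ml, 2 days), exposed to compound for 30 min at room temperature before plating.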

SMILES	IC50 [1]	IC50 [2]
CC[C@@H](Nc1nc(Nc2cncc(-c3cccc(OC)c3)c2)c(C(N)=O)cc1F)[C@H](C)N [Example 006-276, 6-(((2S,3R)-2-aminopentan-3-yl)amino)-5-fluoro-2-((5-(3-methoxyphenyl)pyridin-3-yl)amino)nicotinamide]	< 10 nM	< 65 nM
CC[C@@H](Nc1nc(Nc2cncc(-c3ccc(OC)cc3)c2)c(C(N)=O)cc1F)[C@H](C)N [Example 006-277, 6-(((2S,3R)-2-aminopentan-3-yl)amino)-5-fluoro-2-((5-(4-methoxyphenyl)pyridin-3-yl)amino)nicotinamide]	< 10 nM	65 to 130 nM
CC[C@@H](Nc1nc(Nc2cncc(-c3ccc(OC)cc3F)c2)c(C(N)=O)cc1F)[C@H](C)N [Example 006-279, 6-(((2S,3R)-2-aminopentan-3-yl)amino)-5-fluoro-2-((5-(2-fluoro-4-methoxyphenyl)pyridin-3-yl)amino)nicotinamide]	< 10 nM	65 to 130 nM
CC[C@@H](Nc1nc(Nc2ccnc(-c3cccc(OC)c3F)c2)c(C(N)=O)cc1F)[C@H](C)N [Example 006-281, 6-(((2S,3R)-2-aminopentan-3-yl)amino)-5-fluoro-2-((2-(2-fluoro-3-methoxyphenyl)pyridin-4-yl)amino)nicotinamide]	< 10 nM	< 65 nM
Cn1ncc2cc(Nc3nc(N[C@@H](CN)CC4CC4)c(F)cc3C(N)=O)ccc21 [Example 006-282, (R)-6-((1-amino-3-cyclopropylpropan-2-yl)amino)-5-fluoro-2-((1-methyl-1H-indazol-5-yl)amino)nicotinamide]	< 10 nM	< 65 nM
CCC[C@@H](Nc1nc(Nc2cncc(-c3cccc(OC)c3)c2)c(C(N)=O)cc1F)[C@H](C)N [Example 006-284, 6-(((2S,3R)-2-aminohexan-3-yl)amino)-5-fluoro-2-((5-(3-methoxyphenyl)pyridin-3-yl)amino)nicotinamide]	< 10 nM	130 to 200 nM
CCC[C@@H](Nc1nc(Nc2cncc(-c3ccc(OC)cc3)c2)c(C(N)=O)cc1F)[C@H](C)N [Example 006-285, 6-(((2S,3R)-2-aminohexan-3-yl)amino)-5-fluoro-2-((5-(4-methoxyphenyl)pyridin-3-yl)amino)nicotinamide]	< 10 nM	65 to 130 nM
CCC[C@@H](Nc1nc(Nc2cncc(-c3cccc(OC)c3F)c2)c(C(N)=O)cc1F)[C@H](C)N [Example 006-286, 6-(((2S,3R)-2-aminohexan-3-yl)amino)-5-fluoro-2-((5-(2-fluoro-3-methoxyphenyl)pyridin-3-yl)amino)nicotinamide]	< 10 nM	< 65 nM
CCC[C@@H](Nc1nc(Nc2cncc(-c3ccc(OC)cc3F)c2)c(C(N)=O)cc1F)[C@H](C)N [Example 006-287, 6-(((2S,3R)-2-aminohexan-3-yl)amino)-5-fluoro-2-((5-(2-fluoro-4-methoxyphenyl)pyridin-3-yl)amino)nicotinamide]	< 10 nM	65 to 130 nM
CCC[C@@H](Nc1nc(Nc2cncc(-c3cc(OC)ccc3F)c2)c(C(N)=O)cc1F)[C@H](C)N [Example 006-288]	< 10 nM	130 to 200 nM
CCC[C@@H](Nc1nc(Nc2ccnc(-c3cccc(OC)c3F)c2)c(C(N)=O)cc1F)[C@H](C)N [Example 006-289, 6-(((2S,3R)-2-aminohexan-3-yl)amino)-5-fluoro-2-((2-(2-fluoro-3-methoxyphenyl)pyridin-4-yl)amino)nicotinamide]	< 10 nM	< 65 nM
CCC[C@@H](Nc1nc(Nc2ccnc(-c3cc(OC)ccc3F)c2)c(C(N)=O)cc1F)[C@H](C)N [Example 006-290, 6-(((2S,3R)-2-aminohexan-3-yl)amino)-5-fluoro-2-((2-(2-fluoro-5-methoxyphenyl)pyridin-4-yl)amino)nicotinamide]	< 10 nM	< 65 nM
COc1ccc(-c2cncc(Nc3nc(N[C@@H](CN)CC(C)C)c(F)cc3C(N)=O)c2)cc1 [Example 006-291, (R)-6-((1-amino-4-methylpentan-2-yl)amino)-5-fluoro-2-((5-(4-methoxyphenyl)pyridin-3-yl)amino)nicotinamide]	10 to 50 nM	130 to 200 nM
CCCC[C@H](CN)Nc1nc(Nc2cnc3cc(OC)ccc3c2)c(C(N)=O)cc1F [Example 006-293, (R)-6-((1-aminohexan-2-yl)amino)-5-fluoro-2-((7-methoxyquinolin-3-yl)amino)nicotinamide]	< 10 nM	65 to 130 nM
CCCC[C@H](CN)Nc1nc(Nc2cncc(-n3cccn3)c2)c(C(N)=O)cc1F [Example 006-294, (R)-2-((5-(1H-pyrazol-1-yl)pyridin-3-yl)amino)-6-((1-aminohexan-2-yl)amino)-5-fluoronicotinamide]	10 to 50 nM	65 to 130 nM
CCCC[C@H](CN)Nc1nc(Nc2cncc(-c3ccccc3)c2)c(C(N)=O)cc1F [Example 006-295, (R)-6-((1-aminohexan-2-yl)amino)-5-fluoro-2-((5-phenylpyridin-3-yl)amino)nicotinamide]	10 to 50 nM	130 to 200 nM
CCC[C@@H](Nc1nc(Nc2cnc(C)c(C)c2)c(C(N)=O)cc1F)[C@H](C)N [Example 006-296, 6-(((2S,3R)-2-aminohexan-3-yl)amino)-2-((5,6-dimethylpyridin-3-yl)amino)-5-fluoronicotinamide]	< 10 nM	65 to 130 nM

Next, values leading:

IC50 [1]	IC50 [2]	SMILES
< 10 nM	65 to 130 nM	CCC[C@@H](Nc1nc(Nc2cncc(Cl)c2)c(C(N)=O)cc1F)[C@H](C)N [Example 006-297, 6-(((2S,3R)-2-aminohexan-3-yl)amino)-2-((5-chloropyridin-3-yl)amino)-5-fluoronicotinamide]
< 10 nM	< 65 nM	CCC[C@@H](Nc1nc(Nc2cncc(-n3nccn3)c2)c(C(N)=O)cc1F)[C@H](C)N [Example 006-298, 2-((5-(2H-1,2,3-triazol-2-yl)pyridin-3-yl)amino)-6-(((2S,3R)-2-aminohexan-3-yl)amino)-5-fluoronicotinamide]
< 10 nM	< 65 nM	CCC[C@@H](Nc1nc(Nc2ccnc(-n3ccnn3)c2)c(C(N)=O)cc1F)[C@H](C)N [Example 006-299, 2-((2-(1H-1,2,3-triazol-1-yl)pyridin-4-yl)amino)-6-(((2S,3R)-2-aminohexan-3-yl)amino)-5-fluoronicotinamide]
< 10 nM	< 65 nM	CCC[C@@H](Nc1nc(Nc2ccnc(-n3cncn3)c2)c(C(N)=O)cc1F)[C@H](C)N [Example 006-300, 2-((2-(1H-1,2,4-triazol-1-yl)pyridin-4-yl)amino)-6-(((2S,3R)-2-aminohexan-3-yl)amino)-5-fluoronicotinamide]
10 to 50 nM	130 to 200 nM	CCC[C@@H](Nc1nc(Nc2ccc(C)nc2)c(C(N)=O)cc1F)[C@H](C)N [Example 006-302, 6-(((2S,3R)-2-aminohexan-3-yl)amino)-5-fluoro-2-((6-methylpyridin-3-yl)amino)nicotinamide]
< 10 nM	130 to 200 nM	CCC[C@@H](Nc1nc(Nc2ccc3nc(OCCOC)ccc3c2)c(C(N)=O)cc1F)[C@H](C)N [Example 006-303, 6-(((2S,3R)-2-aminohexan-3-yl)amino)-5-fluoro-2-((2-(2-methoxyethoxy)quinolin-6-yl)amino)nicotinamide]
< 10 nM	130 to 200 nM	NCC(CCC(F)(F)F)Nc1nc(Nc2ccc3ncccc3c2)c(C(N)=O)cc1F (stereo not drawn) [Example 006-304, 6-((1-amino-5,5,5-trifluoropentan-2-yl)amino)-5-fluoro-2-((quinolin-6-yl)amino)nicotinamide]
< 10 nM	65 to 130 nM	CCC[C@@H](Nc1nc(Nc2ccc3nc(C)c(C)nc3c2)c(C(N)=O)cc1F)[C@H](C)N [Example 006-306, 6-(((2S,3R)-2-aminohexan-3-yl)amino)-2-((2,3-dimethylquinoxalin-6-yl)amino)-5-fluoronicotinamide]
< 10 nM	65 to 130 nM	CCC[C@@H](Nc1nc(Nc2cccc3ncccc23)c(C(N)=O)cc1F)[C@H](C)N [Example 006-307, 6-(((2S,3R)-2-aminohexan-3-yl)amino)-5-fluoro-2-(quinolin-5-ylamino)nicotinamide]
< 10 nM	65 to 130 nM	CCC[C@@H](Nc1nc(Nc2ccc3scnc3c2)c(C(N)=O)cc1F)[C@H](C)N [Example 006-308, 6-(((2S,3R)-2-aminohexan-3-yl)amino)-2-(benzo[d]thiazol-5-ylamino)-5-fluoronicotinamide]
< 10 nM	65 to 130 nM	CCC[C@@H](Nc1nc(Nc2ccnc(OCC)c2)c(C(N)=O)cc1F)[C@H](C)N [Example 006-309, 6-(((2S,3R)-2-aminohexan-3-yl)amino)-2-((2-ethoxypyridin-4-yl)amino)-5-fluoronicotinamide]
< 10 nM	65 to 130 nM	CCC[C@@H](Nc1nc(Nc2ccnc(OCCOC)c2)c(C(N)=O)cc1F)[C@H](C)N [Example 006-310, 6-(((2S,3R)-2-aminohexan-3-yl)amino)-5-fluoro-2-((2-(2-methoxyethoxy)pyridin-4-yl)amino)nicotinamide]
< 10 nM	65 to 130 nM	CCC[C@@H](Nc1nc(Nc2cncc(C)c2)c(C(N)=O)cc1F)[C@H](C)N [Example 006-312, 6-(((2S,3R)-2-aminohexan-3-yl)amino)-5-fluoro-2-((5-methylpyridin-3-yl)amino)nicotinamide]
